Reference: the NIST ThermoML archive (doi:10.1016/j.jct.2012.03.031)
Numbers after ± are expanded uncertainties.

Settings: Crystal 1; visual observation

CCCCc1ccc(C(=O)Oc2ccc(C#N)c(F)c2)cc1 [4-cyano-3-fluorophenyl 4-butylbenzoate]
Triple point temperature: 288.43 ± 0.39 K
